Experimental data published in patent publication US20070128217A1 (priority 2003, published 2007).

Experiments:
[1] = tested on: antibodies in sera from SARS patients (sera 1a, 1b, 2, 6, 37, 62, London, SARS-yellow, SARS-green); assay type: binding, human; set-up: Binding of serum 6 to linear peptides of protein X1 of SARS-CoV Urbani / Binding of serum 37 to linear peptides of protein X1 of SARS-CoV Urbani / Binding of serum 6 to looped/cyclic peptide (PEPSCAN-ELISA) / Binding of serum 37 to looped/cyclic peptide (PEPSCAN-ELISA) / Binding of serum 37 to looped/cyclic peptides of protein X1 of SARS-CoV Urbani / Binding of serum 6 to linear peptides of protein X2 / Binding of serum 37 to linear peptides of protein X2 / Binding of serum 37 to looped/cyclic peptides of protein X2 of SARS-CoV Urbani / Binding of serum 6 to linear peptides of protein M of SARS-CoV Urbani / Binding of serum 37 to linear peptides of protein M of SARS-CoV Urbani / Binding of serum 6 to looped/cyclic peptides of protein M of SARS-CoV Urbani / Binding of serum 37 to looped/cyclic peptides of protein M of SARS-CoV Urbani / Binding of serum 6 to linear peptides of protein X3 of SARS-CoV Urbani / Binding of serum 37 to linear peptides of protein X3 of SARS-CoV Urbani / Binding of serum 37 to looped/cyclic peptides of protein X3 of SARS-CoV Urbani / Binding of serum 6 to linear peptides of protein X4 of SARS-CoV Urbani / Binding of serum 37 to linear peptides of protein X4 of SARS-CoV Urbani / Binding of serum 37 to looped/cyclic peptides of protein X4 of SARS-CoV Urbani / Binding of serum 6 to linear peptides of protein X5 of SARS-CoV Urbani / Binding of serum 37 to linear peptides of protein X5 of SARS-CoV Urbani / Binding of serum 37 to looped/cyclic peptides of protein X5 of SARS-CoV Urbani / Binding of serum 6 to linear peptides of protein N of SARS-CoV Urbani / Binding of serum 37 to linear peptides of protein N of SARS-CoV Urbani / Binding of serum 6 to linear peptide (PEPSCAN-ELISA) / Binding of serum 1a to looped/cyclic peptides of protein N of SARS-CoV Urbani / Binding of serum 1b to looped/cyclic peptides of protein N of SARS-CoV Urbani / Binding of serum 2 to looped/cyclic peptides of protein N of SARS-CoV Urbani / Binding of serum 6 to looped/cyclic peptides of protein N of SARS-CoV Urbani / Binding of serum 37 to looped/cyclic peptides of protein N of SARS-CoV Urbani / Binding of serum 62 to looped/cyclic peptides of protein N of SARS-CoV Urbani / Binding of serum London to looped/cyclic peptides of protein N of SARS-CoV Urbani / Binding of serum SARS-green to looped/cyclic peptides of protein N of SARS-CoV Urbani: unit not given here
[2] = tested on: control sera (pooled serum of ten healthy LUMC hospital workers; commercial negative donor pooled serum from the Dutch bloodbank); assay type: binding, human; set-up: Binding of Control serum LUMC to linear peptides / Binding of Control serum Blood-bank to linear peptides / Binding of Control serum LUMC to looped peptides / Binding of Control Serum Blood-Bank to Looped peptides / Binding of Control serum LUMC to linear peptides of the protein M of SARS-CoV Urbani / Binding of Control serum Blood-bank to linear peptides of the protein M of SARS-CoV Urbani / Binding of Control serum LUMC to looped peptides of the protein M of SARS-CoV Urbani / Binding of Control Serum Blood-Bank to Looped peptides of the protein M of SARS-CoV Urbani: unit not given here
[3] = tested on: rabbit serum obtained by immunizing a rabbit with the SARS-CoV strain Frankfurt 1; assay type: binding; set-up: Binding of a rabbit serum to linear peptides / Binding of a rabbit serum to looped peptides / Rabbit serum linear peptides / Rabbit serum looped peptides / Binding of a rabbit serum to linear peptides of protein N of SARS-CoV Urbani (Rabbit serum linear peptides) / Binding of a rabbit serum to looped/cyclic peptides of protein N of SARS-CoV Urbani (Rabbit serum looped peptides): unit not given here

Sequence: LVIGVAFLAVFQSAT
- Binding of serum 1a to linear peptides of protein X1 of SARS-CoV Urbani [1]: 0.7
- Binding of serum 1a to looped/cyclic peptide (PEPSCAN-ELISA) [1]: 0.8
- Binding of serum 1b to linear peptides of protein X1 of SARS-CoV Urbani [1]: 0.6
- Binding of serum 1b to looped/cyclic peptide (PEPSCAN-ELISA) [1]: 0.6
- Binding of serum 2 to linear peptides of protein X1 of SARS-CoV Urbani [1]: 0.6
- Binding of serum 2 to looped/cyclic peptide (PEPSCAN-ELISA) [1]: 0.7
- Binding of serum 6 to linear peptides of protein X1 of SARS-CoV Urbani [1]: 0.4
- Binding of serum 6 to looped/cyclic peptide (PEPSCAN-ELISA) [1]: 0.7
- Binding of serum 37 to linear peptides of protein X1 of SARS-CoV Urbani [1]: 0.6
- Binding of serum 37 to looped/cyclic peptide (PEPSCAN-ELISA) [1]: 0.8
- Binding of serum 62 to linear peptides of protein X1 of SARS-CoV Urbani [1]: 0.6
- Binding of serum 62 to looped/cyclic peptide (PEPSCAN-ELISA) [1]: 1.0
- Binding of serum London to linear peptides of protein X1 of SARS-CoV Urbani [1]: 0.3
- Binding of serum London to looped/cyclic peptide (PEPSCAN-ELISA) [1]: 0.3
- Binding of serum SARS-green to linear peptides of protein X1 of SARS-CoV Urbani [1]: 0.3
- Binding of serum SARS-green to looped/cyclic peptide (PEPSCAN-ELISA) [1]: 0.5
- Binding of serum SARS-yellow to linear peptides of protein X1 of SARS-CoV Urbani [1]: 0.4
- Binding of serum SARS-yellow to looped/cyclic peptide (PEPSCAN-ELISA) [1]: 0.7
- Binding of Control Serum Blood-Bank to Looped peptides [2]: 1.1
- Binding of Control serum Blood-bank to linear peptides [2]: 0.6
- Binding of Control serum LUMC to linear peptides [2]: 0.6
- Binding of Control serum LUMC to looped peptides [2]: 1.0
- Binding of a rabbit serum to linear peptides [3]: 0.3
- Binding of a rabbit serum to looped peptides [3]: 1.2

Sequence: LWPVTLACFVLAAVY
- Binding of serum 1a to linear peptides of protein M of SARS-CoV Urbani [1]: 0.7
- Binding of serum 1a to looped/cyclic peptides of protein M of SARS-CoV Urbani [1]: 0.7
- Binding of serum 1b to linear peptides of protein M of SARS-CoV Urbani [1]: 0.6
- Binding of serum 1b to looped/cyclic peptides of protein M of SARS-CoV Urbani [1]: 0.5
- Binding of serum 2 to linear peptides of protein M of SARS-CoV Urbani [1]: 0.6
- Binding of serum 2 to looped/cyclic peptides of protein M of SARS-CoV Urbani [1]: 0.7
- Binding of serum 6 to linear peptides of protein M of SARS-CoV Urbani [1]: 0.3
- Binding of serum 6 to looped/cyclic peptides of protein M of SARS-CoV Urbani [1]: 0.6
- Binding of serum 37 to linear peptides of protein M of SARS-CoV Urbani [1]: 0.7
- Binding of serum 37 to looped/cyclic peptides of protein M of SARS-CoV Urbani [1]: 0.7
- Binding of serum 62 to linear peptides of protein M of SARS-CoV Urbani [1]: 0.8
- Binding of serum 62 to looped/cyclic peptides of protein M of SARS-CoV Urbani [1]: 0.6
- Binding of serum London to linear peptides of protein M of SARS-CoV Urbani [1]: 0.3
- Binding of serum London to looped/cyclic peptides of protein M of SARS-CoV Urbani [1]: 0.2
- Binding of serum SARS-green to linear peptides of protein M of SARS-CoV Urbani [1]: 0.2
- Binding of serum SARS-green to looped/cyclic peptides of protein M of SARS-CoV Urbani [1]: 0.2
- Binding of serum SARS-yellow to linear peptides of protein M of SARS-CoV Urbani [1]: 0.0
- Binding of serum SARS-yellow to looped/cyclic peptides of protein M of SARS-CoV Urbani [1]: 0.5
- Binding of Control Serum Blood-Bank to Looped peptides of the protein M of SARS-CoV Urbani [2]: 0.6
- Binding of Control serum Blood-bank to linear peptides of the protein M of SARS-CoV Urbani [2]: 0.6
- Binding of Control serum LUMC to linear peptides of the protein M of SARS-CoV Urbani [2]: 0.4
- Binding of Control serum LUMC to looped peptides of the protein M of SARS-CoV Urbani [2]: 0.7
- Rabbit serum linear peptides [3]: 0.4
- Rabbit serum looped peptides [3]: 0.4
